Measured values taken from PMC5789847, “Bismuth antimicrobial drugs serve as broad-spectrum metallo-β-lactamase inhibitors” (Nature Communications, 2018).

Columns and labels:
IMP-BL21 (IMP-4^+) = assay: microbe, parasite or virus in culture; assay type: cell-based, E. coli; settings: IMP-BL21
NDM-HK (NDM-1^+) = assay: microbe, parasite or virus in culture; assay type: cell-based, E. coli
VIM-BL21 (VIM-2^+) = assay: microbe, parasite or virus in culture; assay type: cell-based, E. coli; settings: VIM-BL21
[1] = test system: NDM-K. pneumonia (NDM-1^+); assay: Microdilution MIC/MBC and checkerboard assay; assay type: cell-based, Klebsiella pneumonia
Experimental: (§1) MIC values were determined by standard broth micro-dilution method (Clinical and Laboratory Standards Institute (CLSI) M100-S20, 2010)[64]. Briefly, bacterial cells were cultured in LB broth overnight at 37 °C at 250 rpm and the OD was measured at 600 nm (OD600). The bacterial density was adjusted to about 1 × 10^6 CFU mL^−1 and checked by CFU counting on agar plates afterwards. Tested antibiotics or Bi(III) compounds were added triplicately into individual wells of flat-bottomed 96-well plates and performed 2-fold serial dilution, followed by addition of prepared bacterial inocula. The plate was then incubated at 37 °C for overnight. […] The MIC was determined as the lowest concentration of a drug that could inhibit the growth of microorganism by both visual reading and OD reading at 600 nm using a microtiter plate reader.
(§2) Resulting growth (or lack of growth) was examined after overnight culturing and the lowest concentration that inhibits 99.9% of the original culture was taken as MBC.
(§3) Other procedures were kept strictly the same. […] Synergism was defined when FICI ≤ 0.5, indifference was defined when FICI > 0.5 and < 4, and antagonism was defined when FICI≥4[65]. […] All of the determinations were performed at least in triplicate on different days.

[2] = test system: NDM-C. freundii (NDM-1^+); assay: Microdilution MIC/MBC and checkerboard assay; assay type: cell-based, Citrobacter freundii
Experimental: as §1, §2, §3

NDM-HK PCV = assay: Microdilution MIC and checkerboard assay; assay type: cell-based, E. coli
Experimental: The bacteria employed for cell-based and animal studies are listed in Supplementary Table 1. All the E. coli variants were made as described below. The NDM-HK PCV was screened by 20th-generation serial passages of NDM-HK in antibiotic-free medium.
as §1, §3

E. coli ATCC 25922 = assay: Microdilution MIC assay; assay type: cell-based
Source text: (§4) Other procedures were kept strictly the same.

E. coli BL21(DE3) = assay: Microdilution MIC assay; assay type: cell-based
Source text: as §4

E. coli Rosetta(DE3) = assay: Microdilution MIC assay; assay type: cell-based
Source text: as §4

NDM-Rosetta OX = assay: Microdilution MIC assay; assay type: cell-based, E. coli; settings: NDM-Rosetta OX
Experimental: For the test of NDM-Rosetta OX, the growth condition briefly goes as follow. Overnight culture of NDM-Rosetta was 1000-fold diluted into fresh LB medium and regrew to OD ~0.6. The overexpression of NDM-1 was induced by addition of 1 mM isopropyl β-D-1-thiogalactopyranoside (IPTG) for 4 h at 37 °C. The following susceptibility test was performed as described in the Microdilution MIC and MBC assay section in the methodology by using the resulting bacterial pellets with the supplementation of 200 µM IPTG.
as §4

IMP-4 = assay: IC50 enzyme inhibition assay; assay type: biochemical; settings: MER substrate
Experimental: Freshly prepared 50 nM of Zn2-NDM-1, Zn2-VIM-2, or Zn2-IMP-4 in 50 mM HEPES/Na pH 7.0, 100 mM NaCl were first incubated with various concentrations of CBS for 1 h at 25 °C, then mixed with equal volume of 0.2 mM MER. The assay was performed in a 1 cm quartz cuvette using the kinetic mode on a Varian Cary50 UV-visible spectrophotometer at 25 °C. The decrease in absorbance at 300 nm due to ring-opening of MER was monitored every second for a duration of 10 min until the reaction was completed. The initial rates were extracted and calculated from each reaction curves for fitting IC50 curves.

NDM-1-C208A = NDM-1-C208A (Klebsiella pneumoniae, UniProt C7C422, C208A); assay: Cellular thermal shift assay, mutant strain C208A-Rosetta; assay type: cell-based, E. coli; settings: control 48.24 °C
Chain of NDM-1-C208A (C7C422 29-270 C208A): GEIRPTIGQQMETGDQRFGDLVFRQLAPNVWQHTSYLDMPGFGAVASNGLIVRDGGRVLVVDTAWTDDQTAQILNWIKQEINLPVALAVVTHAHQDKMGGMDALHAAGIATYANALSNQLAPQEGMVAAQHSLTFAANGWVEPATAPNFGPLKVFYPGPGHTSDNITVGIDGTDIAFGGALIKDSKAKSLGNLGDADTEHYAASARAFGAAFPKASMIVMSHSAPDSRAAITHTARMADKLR

NDM-1 = NDM-1 (Klebsiella pneumoniae, UniProt C7C422); assay: Zinc displacement analysis by ICP-MS; assay type: binding; settings: Zn-bound NDM-1 20 μM + increasing CBS
Chain of NDM-1 (C7C422 29-270, looked up, species assumed): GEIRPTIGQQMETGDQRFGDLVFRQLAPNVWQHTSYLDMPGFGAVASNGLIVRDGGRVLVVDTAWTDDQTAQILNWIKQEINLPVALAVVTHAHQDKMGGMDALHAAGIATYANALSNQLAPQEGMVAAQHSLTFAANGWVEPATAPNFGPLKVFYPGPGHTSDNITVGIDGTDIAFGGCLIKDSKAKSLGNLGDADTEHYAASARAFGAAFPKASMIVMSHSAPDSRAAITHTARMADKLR
Experimental: To monitor the displacement of Zn(II) by Bi(III), ICP-MS was employed to accurately quantify ^209Bi and ^66Zn contents in various purified NDM-1 samples. Purified Zn-bound-NDM-1 (20 μM) dissolved in trace-metal-free ICP-MS buffer containing 50 mM HEPES, pH 7.0, was incubated with various concentrations of CBS at 25 °C for 5 h with mild shaking. The samples were subsequently dialyzed in ICP-MS buffer to remove unbound-metal ions and were then acidified and subsequently analyzed using an ICP-MS spectrometer (Agilent 7500a, Agilent Technologies, CA, USA) with ^115In as an internal standard for ^209Bi, ^66Zn, and ^34S contents, which are used to quantify protein concentration.

[3] = MER + compound, 256 µg mL^-1 set as MIC of Bi(III)

Substance: colloidal bismuth subcitrate [CBS]
- MBC of Bi(III) compound alone (IMP-BL21 (IMP-4^+)): > 256 µg/mL
- MBC of MER in combination with compound at 32 µg mL^-1 (IMP-BL21 (IMP-4^+)): 8 µg/mL
- MIC of Bi(III) compound alone (IMP-BL21 (IMP-4^+)): > 256 µg/mL
- MIC of MER in combination with compound at 32 µg mL^-1 (IMP-BL21 (IMP-4^+)): 4 µg/mL
- FICI (IMP-BL21 (IMP-4^+); [3]): 0.187
- growth inhibition by CBS itself (NDM-HK (NDM-1^+); NDM-1-positive NDM-HK, even at 256 µg mL^-1): no or minor growth inhibition
- MBC of Bi(III) compound/inhibitor alone (NDM-HK (NDM-1^+); NDM-HK): > 256 µg/mL
- MBC of MER in combination with compound at 32 µg mL^-1 (NDM-HK (NDM-1^+); NDM-HK): 4 µg/mL
- MIC of Bi(III) compound/inhibitor alone (NDM-HK (NDM-1^+); NDM-HK): > 256 µg/mL
- MIC of MER in combination with CBS at 16 µg mL-1 (NDM-HK (NDM-1^+); NDM-HK): 4 µg/mL
- MIC of MER in combination with CBS at 256 µg mL-1 (NDM-HK (NDM-1^+); NDM-HK): 2 µg/mL
- MIC of MER in combination with compound at 32 µg mL^-1 (NDM-HK (NDM-1^+); NDM-HK): 2 µg/mL
- FICI (NDM-HK (NDM-1^+); NDM-HK, MER + compound, 256 µg mL^-1 set as MIC of Bi(III), 128 for Bi(NAC)3): 0.250
- MBC of Bi(III) compound alone (VIM-BL21 (VIM-2^+)): > 256 µg/mL
- MBC of MER in combination with compound at 32 µg mL^-1 (VIM-BL21 (VIM-2^+)): 1 µg/mL
- MIC of Bi(III) compound alone (VIM-BL21 (VIM-2^+)): > 256 µg/mL
- MIC of MER in combination with compound at 32 µg mL^-1 (VIM-BL21 (VIM-2^+)): 0.5 µg/mL
- FICI (VIM-BL21 (VIM-2^+); [3]): 0.047
- MBC of MER in combination with compound at 32 µg mL^-1 ([1]; NDM-K. pneumonia (NDM-KP)): 8 µg/mL
- MIC of MER in combination with compound at 32 µg mL^-1 ([1]; NDM-K. pneumonia (NDM-KP)): 4 µg/mL
- MBC of Bi(III) compound alone ([1]; NDM-KP): > 256 µg/mL
- MIC of Bi(III) compound alone ([1]; NDM-KP): > 256 µg/mL
- FICI ([1]; NDM-KP, MER + compound, 256 µg mL^-1 set as MIC of Bi(III)): 0.375
- MBC of MER in combination with compound at 32 µg mL^-1 ([2]; NDM-C. freundii (NDM-CF)): 1 µg/mL
- MIC of MER in combination with compound at 32 µg mL^-1 ([2]; NDM-C. freundii (NDM-CF)): 0.5 µg/mL
- MBC of Bi(III) compound alone ([2]; NDM-CF): > 256 µg/mL
- MIC of Bi(III) compound alone ([2]; NDM-CF): > 256 µg/mL
- FICI ([2]; NDM-CF, MER + compound, 256 µg mL^-1 set as MIC of Bi(III)): 0.125
- growth inhibition by CBS itself (NDM-HK PCV; NDM-1-negative NDM-HK PCV, even at 256 µg mL^-1): no or minor growth inhibition
- MIC of MER in combination with CBS at 16 µg mL-1 (NDM-HK PCV; NDM-HK PCV): 0.03 µg/mL
- MIC of MER in combination with CBS at 32 µg mL-1 (NDM-HK PCV; NDM-HK PCV): 0.03 µg/mL
- MIC of MER in combination with CBS at 256 µg mL-1 (NDM-HK PCV; NDM-HK PCV): 0.03 µg/mL
- FICI (NDM-HK PCV; NDM-HK PCV, MER + CBS): 2
- MIC of MER in combination with CBS at 16 µg mL-1 (E. coli ATCC 25922): 0.03 µg/mL
- MIC of MER in combination with CBS at 32 µg mL-1 (E. coli ATCC 25922): 0.03 µg/mL
- MIC of MER in combination with CBS at 256 µg mL-1 (E. coli ATCC 25922): 0.03 µg/mL
- MIC of MER in combination with CBS at 16 µg mL-1 (E. coli BL21(DE3)): 0.03 µg/mL
- MIC of MER in combination with CBS at 32 µg mL-1 (E. coli BL21(DE3)): 0.03 µg/mL
- MIC of MER in combination with CBS at 256 µg mL-1 (E. coli BL21(DE3)): 0.03 µg/mL
- MIC of MER in combination with CBS at 16 µg mL-1 (E. coli Rosetta(DE3)): 0.03 µg/mL
- MIC of MER in combination with CBS at 32 µg mL-1 (E. coli Rosetta(DE3)): 0.03 µg/mL
- MIC of MER in combination with CBS at 256 µg mL-1 (E. coli Rosetta(DE3)): 0.03 µg/mL
- MIC of MER in combination with CBS at 16 µg mL-1 (NDM-Rosetta OX): 128 µg/mL
- MIC of MER in combination with CBS at 32 µg mL-1 (NDM-Rosetta OX): 128 µg/mL
- MIC of MER in combination with CBS at 256 µg mL-1 (NDM-Rosetta OX): 32 µg/mL
- IC50 (IMP-4; IMP-4 50 nM, 1 h preincubation): 700 ± 80 nM
- maximal inhibition of MBL activity (IMP-4; IMP-4, dose-dependent): approximately 90%
- melting temperature, treated group (NDM-1-C208A): 49.72 °C
- Bi(III) bound to the enzyme (NDM-1): 0.96 molar equivalents
- Zn(II) displaced from NDM-1 (NDM-1): ca. 2.13 molar equivalents
